Data as given in US11208559B2, “Modified indigo compounds and methods of dyeing a substrate using a modified indigo compound” (VF Jeanswear LP, priority 2016, dated 2021).
Blank lines part the entries; values can stand above or below the compound they belong to.

Assays:
Assay type in all cases: physicochemical
[1] = Solubility studies in water (centrifugation, weighing of undissolved solids); conditions: for Highest Solubility Measured (wt. %): in water, corrected for insoluble solids, true maximum solubility not determined; for average percent solids removed: undissolved solids removed during centrifugation of aqueous solutions
Description: The solutions were prepared by adding a known amount of dye to a known amount of water and agitating the solution. Separately, each solution of known concentration was centrifuged for 30 minutes to separate out any undissolved solids. The supernatant was decanted and the remaining undissolved solids were dried at 50° C. and later weighed to determine wt. % of soluble portion.
The actual concentration was determined by centrifuging the dye solutions extensively to remove any undissolved solids. The undissolved solids were then isolated, dried, and weighed.
Note that in all instances, a true maximum solubility in water has not been determined due to the very high solubility of the compounds in water. For all compounds, the maximum solubility was corrected for the amount of insoluble solids that were isolated during centrifugation.

[2] = Hydrolysis to indigo under hydrolyzing conditions
[3] = Stability of Compound 4 in water, UV-Vis spectra; conditions: 3 wt. % aqueous solution, room temperature, up to 2 days
Description: The stability of compound 4 was determined. An aqueous solution of 3 wt. % of Compound 4 was prepared at stored at room temperature for 2 days. The UV-Vis spectra for each solution were obtained prior to storage, 3 hours, 1 day, and 2 days. The solution was then diluted by a factor of 300 and the UV-Vis spectrum of FIG. 15 obtained.

[4] = Insoluble solids filtered from stored dye solution with sodium sulfate (Test 4); conditions: 2 wt. % aqueous solution, 0.45 micron filter
Description: Aqueous solutions of 2 wt. % of Compound 8 were prepared with varying concentrations of sodium sulfate and then filtered through a 0.45 micron PVDF syringe filter after one day of room temperature storage. The filters were then dried at 120° C., cooled to room temperature, and weighed to quantify the amount of insoluble solids that had precipitated out of solution during storage.
In a control experiment, the weight change (−0.35%) was determined for a syringe filter that was flushed with 10 mL distilled water and then dried at 120° C.

[5] = Air stability of aqueous solution, UV-Vis spectra
Description: The air stability of Compound 8 was measured by diluting of the compound in water to provide a 0.01 wt. % solution. […] The solid line represents the stability of the Compound 8 aqueous solution under atmospheric conditions. The dashed line represents the stability of the Compound 8 aqueous solution after treatment with 15 minutes of nitrogen purging of the solution, followed by storage for 1 day in a vial equipped with a rubber septum. See, FIG. 10. The UV-Vis spectra of the solutions were obtained.

[6] = Relative kinetics of degradation (hydrolysis) monitored by UV-Vis spectrophotometry; conditions: 0.01 wt. % with 0.1M NaCl aqueous versus 0.01 wt. % without salt, room temperature
Description: In this example, the relative kinetics of degradation for two conditions for Compound 8 were measured. One solution contained 0.01 wt. % of Compound 8 and 0.1M NaCl aqueous and the other solution contained 0.01 wt. % of Compound 8. Both solutions were stored at room temperature and the hydrolysis monitored using UV-Vis spectrophotometry. See, FIG. 13.

[7] = Atmospheric steam treatment of dyed cotton skein, conversion to indigo; conditions: steam under atmospheric conditions for 30 minutes
Description: Cotton skeins were pretreated with 1 M NaOH (aq), dyed with a 3 wt. % aqueous solution of Compound 8, hydrolyzed using 1 M NaOH (aq), and then rinsed with water. One skein was dried at 50° C. and remains purple in color. See, the top skein in FIG. 21. The other skein was dried at 50° C. and then exposed to steam under atmospheric conditions for 30 minutes, resulting in the attainment of a blue hue. See, the botton skein in FIG. 21.

[8] = Storage stability of aqueous dye solution at room temperature, UV-Vis spectra; conditions: for compound converted to indigo: room temperature, 5 day period
Description: All UV-Vis spectra were obtained using a Varian Cary 6000i UV-Vis spectrophotometer.
The stability of Compound 8 was measured by diluting samples of the compound in water to provide 0.01 and 3% wt. % solutions. The solutions were then stored at room temperature for 5 days. The UV-Vis spectra of the solution after 1, 2, and 5 days were obtained. FIGS. 3 and 11A are the UV-Vis spectra which show the robustness of the dye compound after at least 2 days of storage at room temperature at both concentrations.
The longer term stability of Compound 8 was measured by diluting a sample of the compound in water to provide a 0.01 wt. % solution containing 0.1M NaCl (aq). The solution was then stored at room temperature for 5 days. The UV-Vis spectra of the solution were obtained daily over the 5 days.
The stability of Compound 8 was measured by preparing a 0.01 wt. % aqueous solution of compound 8 in water. The solution was then stored at room temperature for 2 days. The UV-Vis spectra of the solution after 1 and 2 days were obtained. FIG. 11B are the UV-Vis spectra which show the robustness of the dye compound after at least 2 days of storage at room temperature at both concentrations.

[9] = Dilution of stock solution into distilled water, comparison with leuco-indigo; conditions: for time to turn blue / convert back to indigo after dilution: 1 mL stock solution in 20 mL distilled water, no excess reducing agent
Description: The stability and visual observations comparing what occurs when an aqueous stock solution of leuco-indigo and an aqueous solution Compound 8 were obtained. The leuco-indigo stock solution was prepared using 0.2 wt. % indigo powder, 0.5 wt. % NaOH, and 0.5 wt. % sodium hydrosulfite, the solution was heated to 50-60° C. for 30 minutes, and the solution was then allowed to cool to room temperature. An aqueous solution containing 3 wt. % of Compound 8 was prepared. 1 mL of each solution was then added to 20 mL of distilled water and physical observations were made. See, Table 3.

[10] = Heat treatment of dyed cotton fabric, conversion to indigo; conditions: 4 minutes
Description: Prepared for dye (PFD) 3×1 twill cotton fabric dyed with Compound 8 prepared by dipping in an aqueous solution containing 3 wt. % of Compound 8, padding, and drying at 50° C. The samples were then placed separately into a lab-scale tenter frame for heat treatment. See, FIG. 20 showing the dyed fabric exposed to 100° C. (left), 150° C. (middle), and 180° C. (right).

[11] = 1 mL stock solution added to 20 mL distilled water

- Highest Solubility Measured (wt. %) [1]: 1.6 wt. %
- average percent solids removed [1]: about 26%
- hydrolysis to indigo [2]: hydrolyzes to indigo
Structure (SMILES): O=C1/C(=C2/C(=O)c3ccccc3N2C(=O)c2ccncc2)N(C(=O)c2ccncc2)c2ccccc21 [Compound 37]

- stability in water compared to Compound 8 [3]: relative instability
Structure (SMILES): C[n+]1cccc(C(=O)N2/C(=C3\C(=O)c4ccccc4N3C(=O)c3ccc[n+](C)c3)C(=O)c3ccccc32)c1 [Compound 4]

- Highest Solubility Measured (wt. %) [1]: 1.7 wt. %
- average percent solids removed [1]: about 26%
Structure (SMILES): O=C1/C(=C2/C(=O)c3ccccc3N2C(=O)c2ccncc2)N(C(=O)c2ccncc2)c2ccccc21 [Compound 35]

- Fraction of dye compound removed during filtration (%) ([4]; 0.1M Na2SO4, one day at room temperature): 2.85%
- Fraction of dye compound removed during filtration (%) ([4]; 0.5M Na2SO4, one day at room temperature): −0.4%
- Fraction of dye compound removed during filtration (%) ([4]; 1M Na2SO4, one day at room temperature): 0.1%
- UV-Vis spectra after one day, stored under nitrogen versus atmospheric conditions ([5]; 0.01 wt. % solution in water, 1 day at 8° C.): identical
- air stability in solution ([5]; aqueous solution, storage at room temperature for 2 days): air stable
- Highest Solubility Measured (wt. %) [1]: 40 wt. %
- average percent solids removed [1]: about 2%
- conversion to indigo by steam [7]: conversion to indigo
- robustness of the dye compound on storage at room temperature ([8]; 0.01 and 3 wt. % solutions in water, FIGS. 3 and 11A): at least 2 days
- compound converted to indigo ([8]; 0.01 wt. % solution containing 0.1M NaCl (aq)): 9%
- compound converted to indigo ([8]; 0.01 wt. % solution in water): 41%
- robustness of the dye compound on storage at room temperature ([8]; Example 27, 0.01 wt. % aqueous solution, FIG. 11B): at least 2 days
- Observation on dilution (color) [9, 11]: Dark purple solutions became lighter
- UV-Vis spectra of diluted solutions [9, 11]: superimposable - consistent with no
- conversion to indigo by heat ([10]; 100° C.): no conversion
- conversion to indigo by heat ([10]; 150° C.): slower conversion
- conversion to indigo by heat ([10]; 180° C.): relatively rapid conversion
Structure (SMILES): C[n+]1ccc(C(=O)N2/C(=C3\C(=O)c4ccccc4N3C(=O)c3cc[n+](C)cc3)C(=O)c3ccccc32)cc1 [Compound 8]
- hydrolysis rate with salt relative to without salt (factor slower) [6]: six

- Observation on dilution (color) [9, 11]: blue-green solution immediately
- time to turn blue / convert back to indigo after dilution [9]: solution turned blue under 10 seconds
- time to turn blue / convert back to indigo after dilution ([9]; listed as leuco-indigo): less than 10 seconds
Structure (SMILES): Oc1c(-c2[nH]c3ccccc3c2O)[nH]c2ccccc12 [Leuco-indigo, leuco-indigo]
